ChEMBL document CHEMBL3085775, “Design, diversity-oriented synthesis and structure activity relationship studies of quinolinyl heterocycles as antimycobacterial agents” (Eur J Med Chem, 2013)
Values after ≈ are worked out from the molar mass of the structure shown.

Legend:
[1] = system: Mycolicibacterium smegmatis; assay: Antimycobacterial activity against Mycobacterium smegmatis MC2 155 ATCC 14468 after 32 hrs by turbidimetry; type: functional; conditions: MC2 155 ATCC 14468, 32 h
[2] = system: A549; assay: Cytotoxicity against human A549 cells after 48 hrs by MTT assay; type: cell-based; conditions: A549, 48 h

| Compound | MIC90 [1] [µg/mL] | IC50 [2] | MIC50 [1] [µg/mL] |
| --- | --- | --- | --- |
| CC(=O)N1N=C(c2cc3ccccc3nc2C)CC1c1ccc(C#N)cc1 (centres undefined) | > 70 | > 200 µg/mL | – |
| Cc1nc2ccccc2cc1-c1nnc(-c2ccccc2C(=O)O)o1 | 43.3 (≈ 131 µM) | 106 µg/mL | – |
| COc1cc(C2CC(c3cc4ccccc4nc3C)=NN2C(C)=O)cc(OC)c1OC (centres undefined) | 52.1 (≈ 124 µM) | > 200 µg/mL | – |
| Cc1nc2ccccc2cc1C1=NN(c2ccccc2)C(c2ccc(Br)cc2)C1 (centres undefined) | > 70 | 93 µg/mL | – |
| Cc1nc2ccccc2cc1C(=O)n1nc(C)c(C2CCCCO2)c1C (centres undefined) | > 70 | 143 µg/mL | – |
| COc1ccc(C2CC(c3cc4ccccc4nc3C)=NN2C(C)=O)cc1OC (centres undefined) | > 70 | > 200 µg/mL | – |
| Cc1nc2ccccc2cc1-c1ccnc(N)n1 | – | 94.2 µM | > 50 |
| Cc1nc2ccccc2cc1-c1csc(N)n1 | – | > 200 µM | > 50 |
| CC(=O)N1N=C(c2cc3ccccc3nc2C)CC1c1ccc(Oc2nc(Cl)c(Cl)cc2Cl)cc1 (centres undefined) | > 70 | > 200 µg/mL | – |
| Cc1nc2ccccc2cc1C(=O)NN | – | 96.4 µM | > 50 |
| CC(=O)N1N=C(c2cc3ccccc3nc2C)CC1c1ccc([N+](=O)[O-])cc1 (centres undefined) | 50.7 (≈ 135 µM) | > 200 µg/mL | – |
| Cc1nc2ccccc2cc1-c1nnc(-c2ccc(F)c(C(F)(F)F)c2)o1 | 47.5 (≈ 127 µM) | 93.3 µg/mL | – |
| Cc1nc2ccccc2cc1-c1nnc(-c2coc3ccccc3c2=O)o1 | 16.8 (≈ 47.4 µM) | 111 µg/mL | – |
| Cc1nc2ccccc2cc1-c1cn2ccccc2n1 | – | 118 µM | > 50 |
| Cc1nc2ccccc2cc1-c1nnc(-c2cccc(Oc3ccccc3)c2)o1 | > 70 | 146 µg/mL | – |
| Cc1nc2ccccc2cc1-c1cc[nH]n1 | – | 138 µM | 14.7 (≈ 70.1 µM) |
| COc1ccc(C2CC(c3cc4ccccc4nc3C)=NN2C(C)=O)c(OC)c1OC (centres undefined) | 46.2 (≈ 110 µM) | 86.5 µg/mL | – |
| CC(=O)n1ccc(-c2cc3ccccc3nc2C)n1 | 17.3 (≈ 69 µM) | 87 µg/mL | – |
| Cc1cc(C)n(C(=O)c2cc3ccccc3nc2C)n1 | 24.1 (≈ 90.9 µM) | 97.9 µg/mL | – |
| Cc1nc2ccccc2cc1-c1nnc(C(C)c2ccccc2)o1 (centres undefined) | 35.9 (≈ 114 µM) | 165 µg/mL | – |
| COc1ccc(C2CC(c3cc4ccccc4nc3C)=NN2C(C)=O)cc1 (centres undefined) | > 70 | 116 µg/mL | – |

| Compound | MIC90 [1] [µg/mL] | IC50 [2] | MIC50 [1] [µg/mL] |
| --- | --- | --- | --- |
| Cc1nc2ccccc2cc1-c1nnc(-c2cccnc2)o1 | 22.7 (≈ 78.8 µM) | 139 µg/mL | – |
| CC(=O)N1N=C(c2cc3ccccc3nc2C)CC1c1cccc(Oc2nc(Cl)c(Cl)cc2Cl)c1 (centres undefined) | 64.9 (≈ 123 µM) | 72.7 µg/mL | – |
| COc1cc(-c2nnc(-c3cc4ccccc4nc3C)o2)cc(OC)c1OC | 61.9 (≈ 164 µM) | 113 µg/mL | – |
| COc1ccc(OC)c(C2CC(c3cc4ccccc4nc3C)=NN2C(C)=O)c1 (centres undefined) | > 70 | 111 µg/mL | – |
| NNC(=O)c1ccncc1 [ISONIAZID] | 11.8 (≈ 85.9 µM) | – | 12.1 (≈ 88 µM) |
| COc1cc(OC)c(C2CC(c3cc4ccccc4nc3C)=NN2C(C)=O)c(OC)c1 (centres undefined) | – | 171 µM | 57.9 (≈ 138 µM) |
| CC(=O)N1N=C(c2cc3c(Cl)cccc3nc2C)CC1c1ccc(C)cc1 (centres undefined) | > 70 | 166 µg/mL | – |
| COc1cc(C2CC(c3cc4ccccc4nc3C)=NN2c2ccccc2)cc(OC)c1OC (centres undefined) | > 70 | > 200 µg/mL | – |
| CCCCCc1nnc(-c2cc3ccccc3nc2C)o1 | > 70 | 72.2 µg/mL | – |
| COc1ccc(C2CC(c3cc4ccccc4nc3C)=NN2c2ccccc2)c(OC)c1OC (centres undefined) | 43.5 (≈ 96 µM) | 143 µg/mL | – |
| CCOc1c(F)c(F)c(C2CC(c3cc4ccccc4nc3C)=NN2C(C)=O)c(F)c1F (centres undefined) | > 70 | 115 µg/mL | – |
| CC(=O)N1N=C(c2cc3ccccc3nc2C)CC1c1ccc(N(C)C)cc1 (centres undefined) | > 70 | 110 µg/mL | – |
| CO[C@H]1/C=C/O[C@@]2(C)Oc3c(C)c(O)c4c(O)c(c(/C=N/N5CCN(C)CC5)c(O)c4c3C2=O)NC(=O)/C(C)=C\C=C\[C@H](C)[C@H](O)[C@@H](C)[C@@H](O)[C@@H](C)[C@H](OC(C)=O)[C@@H]1C [RIFAMPIN] | 2.15 (≈ 2.61 µM) | – | 2.08 (≈ 2.53 µM) |
| Cc1nc2ccccc2cc1-c1nnc(-c2cccs2)o1 | 39.7 (≈ 135 µM) | 99.4 µg/mL | – |
| COc1ccc(OC)c(-c2nnc(-c3cc4ccccc4nc3C)o2)c1 | 29.2 (≈ 84 µM) | 134 µg/mL | – |
| Cc1ccc(-c2nnc(-c3cc4ccccc4nc3C)o2)cc1 | 35 (≈ 116 µM) | 175 µg/mL | – |
| Cc1nc2ccccc2cc1-c1nnc(CCc2ccccc2)o1 | – | 145 µM | 35 (≈ 111 µM) |
| Cc1nc2ccccc2cc1-c1nnc(-c2ccc(C(C)C)cc2)o1 | 41 (≈ 125 µM) | 103 µg/mL | – |
| Cc1nc2ccccc2cc1-c1nnc(-c2ccc(OC(F)(F)F)cc2)o1 | > 70 | 91.1 µg/mL | – |
| Cc1nc2ccccc2cc1-c1nnc(-c2cn(-c3ccccc3)nc2-c2ccccc2)o1 | > 70 | > 200 µg/mL | – |
| CC(=O)N1N=C(c2cc3ccccc3nc2C)CC1/C=C/c1ccccc1 (centres undefined) | > 70 | 93.3 µg/mL | – |
